2 compounds from patent US20160066550A1, “Animal Model Expressing Luciferase under Control of the Myelin Basic Protein Promoter (MBP-luci) and Use of the Model for Bioluminescence In Vivo Imaging” (SANOFI, priority 2009, published 2016) can be followed below.

Where two headings read alike, the source gives them in different places.

In assay [1] the test system is MBP-luc line 171 heterozygous B6C3H mice. The assay can be described thus: MBP-luci bioimaging, cuprizone model, demyelination phase, line 171 heterozygous. Format: in vivo, mouse. The protocol:
(§1) Mice were imaged at week 0 (baseline), week 3 and week 4 data normalized to the week 0 baseline.
As described above, mice were injected with 250 mg/kg D-luciferin through SC, IP or IV. After 5 (intravenous) or 8 (intraperitoneal or SC) minutes, mice were imaged using the IVIS 100 (Xenogen) for 16 minutes (60 seconds imaging and 60 seconds interval for 8 pictures at bin size 8). To quantify bioluminescence, identical circular regions of interest were positioned to encircle each mouse head region, and the imaging signal was quantitated as average radiance (photons/s/cm2/steridian) using […] software (version 2.5, Xenogen). The head region of interest was kept constant in area and positioning within all experiments. Data were normalized to bioluminescence at the initiation of treatment for each animal.
as §1

Another assay concerns MBP-luci mice. The assay is classed as in vivo, mouse. The settings on record: 0.2% cuprizone diet; for imaging signal drop: MBP 5k-luci line 171 (B6C3). The protocol:
To quantify bioluminescence, identical circular regions of interest were positioned to encircle each mouse head region, and the imaging signal was quantitated as average radiance (photons/s/cm2/steridian) using […] software (version 2.5, Xenogen).
As further proof, a MBP 5k-luci line 171 (B6C3 strain) was tested. […] There was significant imaging signal drop with cuprizone treatment (demyelination). For example, there is 43% signal drop from wk 0 to wk 4 and 74% signal drop from wk 0 to wk 6.
Three different MBP-luci lines (line 171 B6C3H het strain, line 121 C57BL/6 heterozygous strain and line 171 B6C3H homozygous strain) were compared by bioimaging and Luxol Fast Blue (LFB; myelin stain) histology. Mice were placed on a diet containing 0.2% cuprizone for 4 or 5 weeks. Imaging data were normalized to week 0 baseline measurements. At the end of each study, mouse brains were harvested and serial paraffin sections were stained for myelin with LFB. Average qualitative LFB score (0 to 5) was shown in the chart of FIG. 21. […] Line 171 B6C3H homozygous mice had the largest bioimaging signal reduction during cuprizone food feeding in the reference to their base line imaging before cuprizone food feeding. For example, after three weeks on the cuprizone diet, 171 B6C3H homozygous mice had 72% signal reduction (week 3 reference to week 0, p<0.05), while line 171 B6C3H heterozygous mice had 45% bioimaging signal reduction (reference to week 0, p<0.05). Line 121 C57 BL/6 heterozygous mice had the smallest reduction in luciferase signal (33% reduction at week 3 over week 0, p<0.05).

Consider `OCCOCCN1CCN(C2=Nc3ccccc3Sc3ccccc32)CC1` [QTP, Quetiapine], for which the “imaging signal vs vehicle control” value in assay [1] (10 mg/kg oral, week 3 and week 4 on cuprizone diet, first study (FIG. 17)) is listed as “significant increases”. In addition, the “cuprizone-induced bioimaging signal reduction” value in assay [1] (10 mg/kg, week 3, second study (FIG. 18), vehicle 47% reduction, p=0.028) is reported as 25%. For the same compound, in assay [1] (10 mg/kg, week 4, second study (FIG. 18), vehicle 25% reduction), the bioimaging signal increase is recorded as 6%. Moreover, in assay [1] (10 mg/kg, weeks 3 and 4, second study (FIG. 18)), the “transgene activity compared to the vehicle control group” value is reported as “significantly greater transgene activity”.

Consider `O=C(NN=C1CCCCC1)C(=O)NN=C1CCCCC1` [cuprizone, bis-cyclohexanone oxaidihydrazone], for which the values for the imaging signal drop in the assay with MBP-luci mice (wk 0 to wk 4) and in the assay on MBP-luci mice (wk 0 to wk 6) were 43% and 74%, respectively. Further, in the assay with MBP-luci mice (week 3 over week 0, line 121 C57 BL/6 heterozygous, p<0.05), the “reduction in luciferase signal” value is on record as 33%. Besides, the bioimaging signal reduction in the assay on MBP-luci mice (week 3 vs week 0, line 171 B6C3H heterozygous, p<0.05) was 45%; with MBP-luci mice (week 3 vs week 0, line 171 B6C3H homozygous, p<0.05), 72%.
